The values that follow come from patent US10683553B2, “Method for determining sensitivity to simultaneous inhibitor against PARP and Tankyrase” (THE ASAN FOUNDATION, priority 2015, dated 2020).

Holding throughout (type): cell-based
Test [1] deals with Ls1034 colon cancer cell line. Put plainly: MTS cell viability / IC50. As to conditions: Homo sapiens, LS-1034. How it is done:
(§1) The present inventors conducted an in vitro cell base assay to analyze the anticancer activity of Compound A, which is a novel PARP/Tankyrase simultaneous inhibitor, in 18 human colon cancer cell lines (Korean Cell Line Bank and ATCC purchased), and the cell viability and IC50 of the cell lines for Compound A, the novel PARP/Tankyrase simultaneous inhibitor, were measured.
(§2) As the experimental conditions and methods, a total of 18 human colon cancer cell lines were cultured in RPMI1640 (Roswell Park Memorial Institute 1640; 10% FBS, 1% penicillin/streptomycin), and each cell line was cultured in 96 well plate for 2×10^3 per well at 37° C. for 24 hours and the novel PARP/Tankyrase simultaneous inhibitor, Compound A, was diluted by a multiple of 2 at a maximum of 100 μM and a minimum of 0.390625 μM (100 μM, 50 μM, 25 μM, 12.5 μM, 6.25 μM, 3.125 μM, 1.5625 μM, 0.78125 μM and 0.390625 μM). After the treatment, it was cultured at 37° C. for 72 hours. As for the drug treatment group and non-treatment group, the cell viability of each cell line was measured by MTS analysis (Promega, CellTiter 96 AQeous One Solution) and the IC50 of each cell line was measured using the PRISM program.
(§3) The present inventors analyzed the correlation of 18 human colon cancer cell lines, an anti-cancer effect of Compound A which is a novel PARP/Tankyrase simultaneous inhibitor and the genotype of the p53 gene through an in vitro cell base assay in the same experimental method as Example 1 in 18 human colon cancer cell lines.

For test [2], the system named is Ls174T colon cancer cell line. Put plainly: MTS cell viability / IC50. As to conditions: Homo sapiens. How it is done: as §1, §2, §3
The subject of test [3] is DLD-1 colon cancer cell line. Briefly: MTS cell viability / IC50. As to conditions: Homo sapiens. As for the experimental part: as §1, §2, §3
In test [4] the test system is SW620 human colon cancer cell line. Put plainly: Trypan blue apoptosis with overexpressed mutant LIG4 (G833A or T1704C). As to conditions: SW620 overexpressing LIG4 mutant G833A or T1704C vs control group (empty); 25 μM and 50 μM, 48 hours. The source says:
In order to analyze the degree of apoptosis of Compound A, which is a novel PARP/Tankyrase simultaneous inhibitor, when the p53 genotype is a mutant type and an LIG4 genotype is a mutant type, the present inventors treated a novel PARP/Tankyrase simultaneous inhibitor, Compound A, and the competitive drug PARP inhibitor, olaparib, while overexpressing an LIG4 mutant type in the SW620 human colon cancer cell line in which the p53 gene is a mutant type and an LIG4 genotype is a normal type. Then, the number of cells was measured by trypan blue staining assay to confirm the degree of apoptosis. The conditions and methods of the above experiment were as follows: SW620 human colon cancer cell line in which the p53 gene is a mutant type and the LIG4 gene is a normal type was cultured in RPMI1640 (10% FBS, 1% penicillin/streptomycin) and cultured in a 60 mm plate at 1×10^5 per well for 24 hours at 37° C. G833A or T1704C plasmid DNA in which an LIG4 genotype is a mutant type was infused into cells by means of Lipofectamin 2000 (Invitrogen), and then overexpressed at 37° C. for 48 hours. Then, the cells were treated with each of 25 μM and 50 μM of Compound A, which is a novel PARP/Tankyrase simultaneous inhibitor and olaparib, a competitive drug PARP inhibitor. After 48 hours of culturing, the number of cells was measured by trypan blue staining and the degree of apoptosis was confirmed.

For test [5], the system named is RKO human colon cancer cell line. Put plainly: Western blot of r-H2AX and cleaved caspase 3. The settings on record: 50 μM, 48 hours. From the text:
(§4) In order to analyze the degree of DNA damage and the degree of apoptosis of Compound A, which is a novel PARP/Tankyrase simultaneous inhibitor, when the p53 gene is a normal type and the LIG4 gene is a mutant type, the present inventors treated a novel PARP/Tankyrase simultaneous inhibitor, Compound A, and the competitive drug PARP inhibitor; olaparib, in the HCT116 human colon cancer cell line in which the p53 gene and an LIG4 gene are normal types and in the RKO human colon cancer cell line in which the p53 gene is a normal type and an LIG4 gene is a mutant type, and then confirmed the DNA damage with the expression level of r-H2Ax by western blotting method and confirmed the degree of apoptosis with the expression level of cleaved caspase 3. The conditions and method of the experiment were as follows: The HCT116 human colon cancer cell line in which the p53 gene and an LIG4 gene are normal types and the RKO human colon cancer cell line in which the p53 gene is a normal type and an LIG4 gene is a mutant type were cultured in RPMI1640 (10% FBS, 1% penicillin/streptomycin) and cultured in a 60 mm plate at 1×10^5 per well for 24 hours at 37° C. Compound A, which is a novel PARP/Tankyrase simultaneous inhibitor, and olaparib, which is a competitive drug PARP inhibitor, were treated with 50 μM each and were cultured for 48 hours. Then, the cells were obtained using a centrifuge. Each cell thus obtained was dissolved using an RIPA buffer, and the proteins were extracted using a high-speed centrifuge. 30 μg protein per cell was electrophoresed by western blot method to separate proteins and transferred to PDVF membrane. The r-H2AX, truncated caspase 3, and b-actin antibody were diluted with each 1:2000 in 5% skim milk. Then, the cells were reacted at 4° C. for 12 hours and then washed three times for 15 minutes with TBS-T buffer. The secondary antibody was diluted with each 1:2000 ratio in 5% skim milk and reacted at room temperature for 2 hours. It was washed with TBS-T buffer three times for 15 minutes to induce luminescence of PDVF membrane using ECL (Enhanced Chemiluminescence) buffer solution to develop protein expression on each anti-body using an X-ray film.
(In general: In western blotting, separated proteins are transferred to a membrane and probed.)

The subject of test [6] is HCT116 human colon cancer cell line. Briefly: Western blot of r-H2AX and cleaved caspase 3. The settings on record: 50 μM, 48 hours.
Excerpt: as §4

Structures are written as SMILES. pIC50: −log10 of the molar value.

`CCOc1cc(CN(C)C)cc2[nH]c(=O)c3c(c12)NCCC3` [Compound A, 8-[(dimethylamino)methyl]-10-ethoxy-1,2,3,4-tetrahydrobenzo[h][1,6]naphthyridin-5(6H)-one]: the negative-log IC50 (pIC50) (in general, −log10 of the IC50, conventionally taken in molar units) in test [1] (LS1034, p53 Mutant type cell line) was below 4.00; in test [1] (Ls1034, MTS, 72 hours), below 4.00; in test [2] (LS174T, p53 Wild-type cell line) it was 4.91; in test [2] (Ls174T, MTS, 72 hours), 4.91; in test [3] (DLD-1, p53 Mutant type cell line) it was 4.07; in test [3] (DLD-1, MTS, 72 hours) it was 4.07. In addition, the “degree of apoptosis (trypan blue cell count)” value in test [4] is “no change in the apoptosis”. Also, the “expression amount of truncated caspase 3 (western blot)” value in test [5] and in test [6] was “increased expression amount of the truncated caspase 3” throughout. Moreover, the “expression of r-H2AX (western blot)” value in test [5] and in test [6] was “increased expression of r-H2AX than the group treated with olaparib” throughout.
